Laboratory results published in US11028077B2, “Crystalline pharmaceutical and methods of preparation and use thereof” (NOVARTIS PHARMACEUTICALS CORPORATION, priority 2008, dated 2021).

Tested on: tester strains
Assay: In vitro Ames bacterial reverse mutation assay
Type: cell-based
Settings: presence or absence of microsomal (S9) enzymes
Source text: Therefore, the compound of Formula I was judged to be not mutagenic.

Structure (SMILES): CS(=O)(=O)c1cccc(C[C@H](NC(=O)c2c(Cl)cc3c(c2Cl)CCN(C(=O)c2ccc4ccoc4c2)C3)C(=O)O)c1 [compound of Formula I]
- mutagenicity (revertants per plate): not mutagenic
